Source: patent US10266490B2, “Radioprotector compounds” (GEORGETOWN UNIVERSITY, priority 2012, dated 2019)

Tests used:
ATM = assay: Western blot of ATM signaling, 184A1 cells; assay type: cell-based, human; details: KU55933 10 μM
Protocol: FIG. 7A contains Western blots of subconfluent proliferating 184A1 human mammary epithelial cells exposed to DIM (0.3 μM) for different time intervals. Phosphorylated or total levels of ATM and of several different ATM substrate proteins were determined, as indicated. As a negative control, cells were treated with a selective inhibitor of ATM kinase activity (KU55933). FIG. 7B contains Western blots of 184A1 cells either untreated or treated with radiation (2-Gy of γ-radiation) and/or DIM (0.3 μM).
FIG. 8 contains a Western blot of subconfluent proliferating 184A1 human mammary epithelial cells exposed to DIM (0.3 μM) for different time intervals. Phosphorylated or total levels of ATM and of different DNA damage-response proteins were determined, as indicated.
Western blotting was performed. The primary antibodies were as follows: rabbit polyclonal anti-BRCA1 (sc-642, Santa Cruz); mouse monoclonal α-actin (sc-1616, Santa Cruz); anti-phospho-BRCA1 (S1387) [AB3257, Millipore (Billerica, Mass.)]; mouse monoclonal anti-ATM (sc-73615, Santa Cruz,); anti-phospho-ATM (S1981); anti-CHK2 (05-649, mouse monoclonal, Millipore); anti-phosph-CHK2 (T68) (ab32055, rabbit monoclonal, Abcam, Cambridge, Mass.); anti-p53 (ab2433, rabbit polyclonal, Abcam), and rabbit polyclonal anti-phospho-p53 (S15) (ab38497, Abcam).

[1] = system: non-homologous end joining; assay: DNA strand rejoining assay (linearized plasmid pEGFP-1, nuclear lysates); assay type: cell-based, human; details: 184A1 cells; inhibitor 10 μM
Protocol: FIGS. 11A and 11B show subconfluent proliferating 184A1 (FIG. 11A) or Hs578Bst (FIG. 11B) cells pre-treated±DIM (0.3 μM×24 hr); exposed to radiation (3-Gy) on ice; and subjected to neutral comet assays at different times post-irradiation. Values of % tail DNA are means±ranges of two determinations. […] At 24-hr after irradiation, cells were analyzed by flow cytometry for apoptosis, by measuring membrane redistribution of phosphatidylserine. The percentage of early and late apoptotic cells for non-irradiated control cells were: vehicle treated, 1.25% and 1.34%, and DIM-treated, 0.54% and 1.02%, respectively.
After the indicated cell treatment(s), nuclear lysates were prepared and aliquots of lysate (50 or 75 μg of nuclear protein) were tested for their ability to rejoin a plasmid (pEGFP-1, Clontech) that had been linearized using restriction enzyme SmaI. The reaction products were detected by Southern blotting, which was performed with a digoxigenin-labeled enhanced green fluorescent protein RNA probe. The percent rejoined plasmids […] was determined by densitometric quantification of the bands corresponding to rejoined and unrejoined plasmid.
Since ATM is known to have a major role in the repair of radiation-induced double-strand breaks (DSBs) of DNA, it was tested whether DIM could stimulate the repair of DSBs. The neutral comet assay is an electrophoretic method to measure DNA damage that reflects DSBs. The percent of tail DNA after irradiation reflects the number of DSBs. […] A DNA strand-rejoining assay based on the ability of cell nuclei to rejoin a linearized plasmid (pEGFP-1) was also performed, detected by Southern blotting. This assay reflects the process of non-homologous end joining (NEHJ).

[2] = system: cultured cells (e.g., fibroblasts and epithelial cells); assay: Radiation protection of cultured cells (clonogenic survival, various cell types); assay type: cell-based; details: for radiation protection relative to DIM: cultured cells
Source text: DIM, a metabolite of indole-3-carbinol and a proposed […], is a potent radiation protector in cultured cells and in rodents (mice and rats). The preparation of DIM that was used for most experiments was a microencapsulated form of DIM produced by BioResponse Nutrients (Boulder, Colo.). This microencapsulated form of DIM is designed with specific excipients (e.g., alpha-tocopherol succinate and phosphatidylcholine) to provide enhanced absorption and, therefore, enhanced bioavailability.
(§1) Following the indicated treatment(s), subconfluent proliferating cells were irradiated with different doses of ^137Cs γ-rays, harvested using trypsin, and plated at different densities in the absence or presence of DIM (as indicated) for colony formation (clonogenic survival) assays, as described in Zhang et al., Radiat Res, 161:667-674 (2004). Values of surviving fraction are means±SEMs of triplicate plates.
Novel compounds were synthesized, which we have tested for their ability to protect cells against radiation in cultured cells. […] None of these compounds are predicted to be free-radical scavengers or to be genotoxic. For reference, clonogenic radiation survival curves of cultured human mammary epithelial cells treated without or with DIM are shown in FIG. 6, panels A and B. In these studies, human mammary epithelial cells at about 70-80% of confluency were treated with DIM (0.3 μM) or vehicle ([…]) for 24 hours. The cells were then irradiated using different doses of ^137Cs gamma rays, harvested, plated at different densities in the presence of DIM (0.3 μM) or vehicle, respectively, incubated for 14 days, and then counted for colony formation. In FIG. 6, panels A and B, the clonogenic survival curves are shown using non-tumorigenic human mammary epithelial cell lines Hs5788st (panel B) or 184A1 (panel A). All cell survival values are means±SEMs of three replicate dishes.

[3] = system: Hs578Bst human mammary epithelial cells; assay: Clonogenic survival after radiation, Hs578Bst cells; assay type: cell-based; details: single dose of radiation (8-Gy); different concentrations
Source text: as §1
It was next tested whether DIM could protect cultured cells against radiation using clonogenic survival (colony formation) assays. Cells were exposed to DIM (0.3 μM) for 24-hr, irradiated, and harvested for colony formation assays. […]
Novel compounds were synthesized, which we have tested for their ability to protect cells against radiation in cultured cells. […] The cells were then irradiated using different doses of ^137Cs gamma rays, harvested, plated at different densities in the presence of DIM (0.3 μM) or vehicle, respectively, incubated for 14 days, and then counted for colony formation. […]
Cells at about 70-80% confluency were treated with vehicle (DMSO) or with the indicated compound (1 μM) for 24 hours, irradiated using different doses of ^137Cs gamma rays, harvested, plated at different densities in the presence of the compound (0.3 μM) or vehicle, respectively, incubated for 14 days, and then counted for colony formation. […]

O=c1cc(-c2cccc3c2Sc2ccccc2S3)oc(N2CCOCC2)c1 [KU55933]
effect on DIM-induced phosphorylations of ATM, BRCA1 and CHK2 (ATM): blocked | effect on DIM-induced strand-rejoining [1]: blocked DIM-induced strand-rejoining

c1ccc2c(Cc3c[nH]c4ccccc34)c[nH]c2c1 [crystalline DIM, 3,3′-diindolylmethane]
radioprotection of cultured cells ([2]; ionizing radiation, clonogenic survival assays): work very well as radioprotectors

CCOC(=O)C(O)(c1c(C)n(C)c2ccccc12)C(F)(F)F (stereo not drawn) [THW-5-85]
radiation protection relative to DIM [2]: strong levels of radiation protection similar to, slightly greater than, or slightly less than DIM | potency of survival enhancement relative to DIM [3]: at least as potent as DIM

COc1ccc2c(c1)[nH]c1c(C)c(OS(=O)(=O)c3cccc4c(N(C)C)cccc34)ccc12 [KED-4-69]
radiation protection relative to DIM [2]: strong levels of radiation protection similar to, slightly greater than, or slightly less than DIM
